# Test results from paper PMC11684029, “Discovery of VU6024578/BI02982816: An mGlu1 Positive Allosteric Modulator with Efficacy in Preclinical Antipsychotic and Cognition Models” (Journal of Medicinal Chemistry, 2024).
# Tests used:
# EP2 = molecular target: T1, EP2 (Homo sapiens, UniProt P43116); assay: Eurofins radioligand binding panel; conditions: agonist radioligand
# T1 construct: Eurofins
# From the text: (§1) Table S1. Eurofins Lead Profiling Screen Data
# (§2) This is a radioligand binding panel of 80 targets including GPCRs, ion channels, transporters and nuclear hormones. Biochemical assay results are presented as the percent inhibition of specific […]
# (§3) Results showing an inhibition or stimulation higher than 50% are considered to represent significant effect and are highlighted
# Y1 = molecular target: T2, Y1 (Homo sapiens, UniProt P25929); assay: Eurofins radioligand binding panel; conditions: agonist radioligand
# T2 construct: Eurofins
# From the text: as §1, §2, §3
# 5-HT2C = molecular target: T3, 5-HT2C (Homo sapiens, UniProt P28335); assay: Eurofins radioligand binding panel; conditions: antagonist radioligand
# T3 construct: Eurofins
# From the text: as §1, §2, §3
# M1 = molecular target: T4, M1 (Homo sapiens, UniProt P11229); assay: Eurofins radioligand binding panel; conditions: antagonist radioligand
# T4 construct: Eurofins
# From the text: as §1, §2, §3
# MC4 = molecular target: T5, MC4 (Homo sapiens, UniProt P32245); assay: Eurofins radioligand binding panel; conditions: agonist radioligand
# T5 construct: Eurofins
# From the text: as §1, §2, §3
# H2 = molecular target: T6, H2 (Homo sapiens, UniProt P25021); assay: Eurofins radioligand binding panel; conditions: antagonist radioligand
# T6 construct: Eurofins (panel run as a service)
# From the text: as §1, §2, §3
# kappa (KOP) = molecular target: T7, kappa (KOP) (Homo sapiens, UniProt P41145); assay: Eurofins radioligand binding panel; conditions: agonist radioligand
# T7 construct: Eurofins
# From the text: as §1, §2, §3
# V1a = molecular target: T8, V1a (Homo sapiens, UniProt P37288); assay: Eurofins radioligand binding panel; conditions: agonist radioligand
# T8 construct: Eurofins
# From the text: as §1, §2, §3
# 5-HT1B = molecular target: T9, 5-HT1B (Homo sapiens, UniProt P28222); assay: Eurofins radioligand binding panel; conditions: antagonist radioligand
# T9 construct: Eurofins
# From the text: as §1, §2, §3
# VPAC1 (VIP1) = molecular target: T10, VPAC1 (VIP1) (Homo sapiens, UniProt P32241); assay: Eurofins radioligand binding panel; conditions: agonist radioligand
# T10 construct: Eurofins
# From the text: as §1, §2, §3
# dopamine transporter = molecular target: T11, dopamine transporter (Homo sapiens, UniProt Q01959); assay: Eurofins radioligand binding panel; conditions: antagonist radioligand
# T11 construct: Eurofins
# From the text: as §1, §2, §3
# 5-HT7 = molecular target: T12, 5-HT7 (Homo sapiens, UniProt P34969); assay: Eurofins radioligand binding panel; conditions: agonist radioligand
# T12 construct: Eurofins
# From the text: as §1, §2, §3
# delta (DOP) = molecular target: T13, delta (DOP) (Homo sapiens, UniProt P41143); assay: Eurofins radioligand binding panel; conditions: agonist radioligand
# T13 construct: Eurofins
# From the text: as §1, §2, §3
# NOP (ORL1) = molecular target: T14, NOP (ORL1) (Homo sapiens, UniProt P41146); assay: Eurofins radioligand binding panel; conditions: agonist radioligand
# T14 construct: Eurofins
# From the text: as §1, §2, §3
# Y2 = molecular target: T15, Y2 (Homo sapiens, UniProt P49146); assay: Eurofins radioligand binding panel; conditions: agonist radioligand
# T15 construct: Eurofins
# From the text: as §1, §2, §3
# [1] = molecular target: T16, norepinephrine transporter (Homo sapiens, UniProt P23975); assay: Eurofins radioligand binding panel; conditions: antagonist radioligand
# T16 construct: Eurofins
# From the text: as §1, §2, §3
# ETA = molecular target: T17, ETA (Homo sapiens, UniProt P25101); assay: Eurofins radioligand binding panel; conditions: agonist radioligand
# T17 construct: Eurofins (panel run as a service)
# From the text: as §1, §2, §3
# M5 = molecular target: T18, M5 (Homo sapiens, UniProt P08912); assay: Eurofins radioligand binding panel; conditions: antagonist radioligand
# T18 construct: Eurofins
# From the text: as §1, §2, §3
# GR = molecular target: T19, GR (Homo sapiens, UniProt P04150); assay: Eurofins radioligand binding panel; conditions: agonist radioligand
# T19 construct: Eurofins
# From the text: as §1, §2, §3
# D3 = molecular target: T20, D3 (Homo sapiens, UniProt P35462); assay: Eurofins radioligand binding panel; conditions: antagonist radioligand
# T20 construct: Eurofins (panel run as a service)
# From the text: as §1, §2, §3
# mu (MOP) = molecular target: T21, mu (MOP) (Homo sapiens, UniProt P35372); assay: Eurofins radioligand binding panel; conditions: agonist radioligand
# T21 construct: Eurofins
# From the text: as §1, §2, §3
# H1 = molecular target: T22, H1 (Homo sapiens, UniProt P35367); assay: Eurofins radioligand binding panel; conditions: antagonist radioligand
# T22 construct: Eurofins (panel run as a service)
# From the text: as §1, §2, §3
# Na+ channel (site 2) = assay: Eurofins radioligand binding panel; conditions: antagonist radioligand
# From the text: as §1, §2, §3
# 5-HT transporter = molecular target: T23, 5-HT transporter (Homo sapiens, UniProt P31645); assay: Eurofins radioligand binding panel; conditions: antagonist radioligand
# T23 construct: Eurofins
# From the text: as §1, §2, §3
# IP (PGI2) = molecular target: T24, IP (PGI2) (Homo sapiens, UniProt P43119); assay: Eurofins radioligand binding panel; conditions: agonist radioligand
# T24 construct: Eurofins
# From the text: as §1, §2, §3
# M2 = molecular target: T25, M2 (Homo sapiens, UniProt P08172); assay: Eurofins radioligand binding panel; conditions: antagonist radioligand
# T25 construct: Eurofins
# From the text: as §1, §2, §3
# 5-HT6 = molecular target: T26, 5-HT6 (Homo sapiens, UniProt P50406); assay: Eurofins radioligand binding panel; conditions: agonist radioligand
# T26 construct: Eurofins
# From the text: as §1, §2, §3
# Cl- channel (GABA-gated) = assay: Eurofins radioligand binding panel; conditions: antagonist radioligand
# From the text: as §1, §2, §3
# C57Bl/6 mice = assay: amphetamine-induced hyperlocomotion (mouse); assay type: in vivo
# Description: In parallel with the rat AHL study, we carried out a mouse AHL study to determine if the PK/PD relationship would remain intact across rodent species. Here, amphetamine was dosed to C57Bl/6 mice at 3 mg/kg s.c. to achieve ∼800 beam breaks, followed by the oral administration of 19d at 3, 10, and 30 mg/kg (Figure 8). […] Thus, mGlu1 has sufficient target coverage and PK/PD^24 is established for this paradigm in mouse and agree well with the PK/PD relationship established in rat for both NOR and AHL wherein free brain concentrations at or above the in vitro EC50 facilitates a significant pharmacodynamic response.
# Figure 8 Mouse amphetamine-induced hyperlocomotion and reversal by VU6024578 (19d). Amphetamine (3.0 mg/kg s.c.) induced robust hyperlocomotion, which was dose-dependently reversed by oral administration (0.5% Natrasol/0.015% tween 80 in H2O) of 19d. TEXT PRINTED IN THE PICTURE: VU6024578-09: Mean % reversal: -7.7 ± 32.6 (3 mg/kg i.p. + Amphetamine 3 mg/kg s.c.); Mean % reversal: 84.2 ± 10.2 (10 mg/kg i.p. + Amphetamine 3 mg/kg s.c.); Mean % reversal: 90.0 ± 12.7 (30 mg/kg i.p. + Amphetamine 3 mg/kg s.c.)
# Adult male C57/bl6 mice are placed in the activity chambers (Med Associates) to habituate. 90 min later the mice were administered VU6024578 (3–30 mg/kg i.p. Ten ml/kg) or vehicle (0.5% natrasol/0.015% Tween 80) and placed back in the activity chambers. Thirty minutes later the animals were administered Amphetamine (3 mg/kg) and placed back in the activity chambers for 1 h. The data for the studies were analyzed by a between-group 2 way analysis of variance for compound dose and time. Total ambulation from 125 to 180 min was analyzed by one-way ANOVA. Each dose group was compared with the vehicle control group. The calculations were performed and graphed using GraphPad Prism (version 4.03, GraphPad, La Jolla, CA).
# hERG = hERG (Homo sapiens, UniProt Q12809); assay: hERG manual patch clamp assay; assay type: cell-based
# Chain of hERG (Q12809 whole entry): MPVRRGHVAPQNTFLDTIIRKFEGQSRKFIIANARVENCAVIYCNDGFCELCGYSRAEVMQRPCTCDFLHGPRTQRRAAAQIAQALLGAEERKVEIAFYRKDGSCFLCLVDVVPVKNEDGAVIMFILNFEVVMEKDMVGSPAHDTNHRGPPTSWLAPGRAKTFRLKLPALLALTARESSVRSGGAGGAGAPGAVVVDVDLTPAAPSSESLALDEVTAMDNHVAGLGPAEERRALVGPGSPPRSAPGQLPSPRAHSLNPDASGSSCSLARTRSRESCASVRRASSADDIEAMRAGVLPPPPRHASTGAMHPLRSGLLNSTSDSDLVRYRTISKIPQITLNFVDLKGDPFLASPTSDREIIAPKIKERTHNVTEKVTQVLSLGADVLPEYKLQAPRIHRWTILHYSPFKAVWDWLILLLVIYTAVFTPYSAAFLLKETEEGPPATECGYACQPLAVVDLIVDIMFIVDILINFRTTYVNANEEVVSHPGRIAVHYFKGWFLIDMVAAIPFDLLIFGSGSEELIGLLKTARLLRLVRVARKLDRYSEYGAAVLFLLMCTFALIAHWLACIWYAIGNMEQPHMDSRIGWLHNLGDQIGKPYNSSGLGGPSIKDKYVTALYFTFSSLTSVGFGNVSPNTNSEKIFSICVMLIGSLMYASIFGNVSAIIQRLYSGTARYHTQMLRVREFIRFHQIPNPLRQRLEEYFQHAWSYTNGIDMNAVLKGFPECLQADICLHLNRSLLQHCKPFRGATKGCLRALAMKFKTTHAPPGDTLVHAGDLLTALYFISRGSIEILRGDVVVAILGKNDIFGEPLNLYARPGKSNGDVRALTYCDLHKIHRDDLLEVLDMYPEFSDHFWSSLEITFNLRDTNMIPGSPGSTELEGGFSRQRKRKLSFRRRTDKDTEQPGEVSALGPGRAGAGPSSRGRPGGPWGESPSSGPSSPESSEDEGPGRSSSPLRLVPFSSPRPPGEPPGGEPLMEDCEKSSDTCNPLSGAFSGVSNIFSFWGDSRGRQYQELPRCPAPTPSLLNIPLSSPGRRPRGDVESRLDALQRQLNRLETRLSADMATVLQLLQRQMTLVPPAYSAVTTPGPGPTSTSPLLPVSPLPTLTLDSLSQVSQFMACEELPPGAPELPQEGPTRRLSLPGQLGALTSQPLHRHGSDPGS
# T18 sequence (P08912 whole entry): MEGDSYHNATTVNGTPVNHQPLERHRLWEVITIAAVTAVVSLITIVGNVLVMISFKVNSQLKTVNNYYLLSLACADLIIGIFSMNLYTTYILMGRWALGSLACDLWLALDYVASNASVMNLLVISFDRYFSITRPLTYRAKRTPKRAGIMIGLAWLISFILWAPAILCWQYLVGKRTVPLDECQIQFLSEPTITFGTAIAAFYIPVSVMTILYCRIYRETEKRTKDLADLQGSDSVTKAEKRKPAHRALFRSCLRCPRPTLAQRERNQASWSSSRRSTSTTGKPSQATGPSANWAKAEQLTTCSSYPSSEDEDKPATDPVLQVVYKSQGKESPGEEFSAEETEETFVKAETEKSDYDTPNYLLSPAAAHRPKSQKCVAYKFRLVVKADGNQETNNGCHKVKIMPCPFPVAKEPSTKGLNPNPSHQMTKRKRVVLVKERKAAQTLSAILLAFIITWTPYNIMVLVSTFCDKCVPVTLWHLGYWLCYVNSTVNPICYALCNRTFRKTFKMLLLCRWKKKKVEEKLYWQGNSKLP
# T17 sequence (P25101 21-427): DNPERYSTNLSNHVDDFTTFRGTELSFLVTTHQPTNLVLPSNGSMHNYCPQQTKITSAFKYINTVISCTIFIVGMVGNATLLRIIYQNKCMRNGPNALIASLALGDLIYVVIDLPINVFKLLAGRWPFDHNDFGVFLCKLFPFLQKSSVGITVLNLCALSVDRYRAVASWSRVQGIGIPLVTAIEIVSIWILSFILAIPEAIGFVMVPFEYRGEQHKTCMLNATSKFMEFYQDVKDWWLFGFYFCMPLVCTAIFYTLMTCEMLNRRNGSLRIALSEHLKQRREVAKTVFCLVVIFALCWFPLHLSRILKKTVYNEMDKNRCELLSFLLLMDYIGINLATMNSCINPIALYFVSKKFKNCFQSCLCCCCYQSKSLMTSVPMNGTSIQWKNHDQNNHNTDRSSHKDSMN
# T5 sequence (P32245 whole entry): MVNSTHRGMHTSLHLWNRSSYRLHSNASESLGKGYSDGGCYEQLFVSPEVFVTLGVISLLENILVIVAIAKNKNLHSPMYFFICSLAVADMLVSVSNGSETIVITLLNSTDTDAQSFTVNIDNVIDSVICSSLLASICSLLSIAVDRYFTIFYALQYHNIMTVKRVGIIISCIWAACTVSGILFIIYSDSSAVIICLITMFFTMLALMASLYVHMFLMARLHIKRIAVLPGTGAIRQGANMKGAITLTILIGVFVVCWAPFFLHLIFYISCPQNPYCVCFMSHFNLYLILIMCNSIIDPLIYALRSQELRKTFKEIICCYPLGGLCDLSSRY
# T8 sequence (P37288 whole entry): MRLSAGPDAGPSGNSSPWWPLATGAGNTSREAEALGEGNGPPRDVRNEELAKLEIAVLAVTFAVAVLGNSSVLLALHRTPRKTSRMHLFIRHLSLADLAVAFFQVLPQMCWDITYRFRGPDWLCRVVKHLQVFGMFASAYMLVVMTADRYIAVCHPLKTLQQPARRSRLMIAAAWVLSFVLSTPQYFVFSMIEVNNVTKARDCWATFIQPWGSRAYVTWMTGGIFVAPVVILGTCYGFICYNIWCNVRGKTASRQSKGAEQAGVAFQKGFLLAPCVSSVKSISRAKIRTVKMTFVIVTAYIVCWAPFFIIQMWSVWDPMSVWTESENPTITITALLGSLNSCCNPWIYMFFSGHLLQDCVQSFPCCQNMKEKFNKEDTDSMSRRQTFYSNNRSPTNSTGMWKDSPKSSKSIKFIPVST
# T14 sequence (P41146 whole entry): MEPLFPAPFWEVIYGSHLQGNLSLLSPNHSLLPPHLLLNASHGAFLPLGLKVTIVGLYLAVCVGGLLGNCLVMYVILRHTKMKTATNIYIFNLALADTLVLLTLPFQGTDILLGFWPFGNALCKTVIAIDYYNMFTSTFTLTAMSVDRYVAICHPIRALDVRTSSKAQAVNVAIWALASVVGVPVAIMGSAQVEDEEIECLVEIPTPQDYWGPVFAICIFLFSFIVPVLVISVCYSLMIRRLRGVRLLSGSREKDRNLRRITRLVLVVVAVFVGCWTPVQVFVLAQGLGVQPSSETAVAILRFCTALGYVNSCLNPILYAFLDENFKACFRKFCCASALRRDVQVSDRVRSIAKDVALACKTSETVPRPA
# T20 sequence (P35462 whole entry): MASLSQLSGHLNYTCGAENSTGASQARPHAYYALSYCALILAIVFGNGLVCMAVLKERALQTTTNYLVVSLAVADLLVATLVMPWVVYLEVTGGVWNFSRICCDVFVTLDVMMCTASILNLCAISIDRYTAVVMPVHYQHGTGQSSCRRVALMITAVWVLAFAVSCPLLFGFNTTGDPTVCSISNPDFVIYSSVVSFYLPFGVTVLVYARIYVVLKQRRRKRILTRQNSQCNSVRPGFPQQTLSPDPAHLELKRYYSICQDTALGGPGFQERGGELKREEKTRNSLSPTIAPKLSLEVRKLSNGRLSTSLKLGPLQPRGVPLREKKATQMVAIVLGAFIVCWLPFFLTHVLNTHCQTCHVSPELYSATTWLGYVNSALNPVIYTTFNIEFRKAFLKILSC
# T6 sequence (P25021 whole entry): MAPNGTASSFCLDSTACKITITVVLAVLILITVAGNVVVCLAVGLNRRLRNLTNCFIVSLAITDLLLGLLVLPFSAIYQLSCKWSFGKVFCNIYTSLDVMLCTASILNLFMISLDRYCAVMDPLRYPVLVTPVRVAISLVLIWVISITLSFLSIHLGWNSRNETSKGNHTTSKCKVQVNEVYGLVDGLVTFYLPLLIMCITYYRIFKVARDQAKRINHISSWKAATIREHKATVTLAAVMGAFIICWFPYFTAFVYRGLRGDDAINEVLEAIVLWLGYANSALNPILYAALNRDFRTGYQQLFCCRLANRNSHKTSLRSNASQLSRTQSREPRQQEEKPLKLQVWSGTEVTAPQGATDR
# T11 sequence (Q01959 whole entry): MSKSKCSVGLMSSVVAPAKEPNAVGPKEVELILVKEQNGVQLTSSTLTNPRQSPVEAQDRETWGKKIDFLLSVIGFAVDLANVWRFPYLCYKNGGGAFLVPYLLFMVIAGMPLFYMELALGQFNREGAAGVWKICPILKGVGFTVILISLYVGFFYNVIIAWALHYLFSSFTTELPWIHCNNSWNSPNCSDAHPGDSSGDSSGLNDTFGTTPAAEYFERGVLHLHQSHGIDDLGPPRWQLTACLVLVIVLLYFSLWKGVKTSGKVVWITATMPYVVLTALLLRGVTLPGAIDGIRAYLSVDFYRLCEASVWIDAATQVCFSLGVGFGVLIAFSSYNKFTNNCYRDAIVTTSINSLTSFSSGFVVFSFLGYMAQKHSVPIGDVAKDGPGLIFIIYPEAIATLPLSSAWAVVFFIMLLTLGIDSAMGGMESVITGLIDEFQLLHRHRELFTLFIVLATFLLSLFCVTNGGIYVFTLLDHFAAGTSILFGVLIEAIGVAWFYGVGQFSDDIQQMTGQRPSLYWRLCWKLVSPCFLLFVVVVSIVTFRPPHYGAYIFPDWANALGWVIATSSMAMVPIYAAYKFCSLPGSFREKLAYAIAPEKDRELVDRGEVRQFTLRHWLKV
# T24 sequence (P43119 whole entry): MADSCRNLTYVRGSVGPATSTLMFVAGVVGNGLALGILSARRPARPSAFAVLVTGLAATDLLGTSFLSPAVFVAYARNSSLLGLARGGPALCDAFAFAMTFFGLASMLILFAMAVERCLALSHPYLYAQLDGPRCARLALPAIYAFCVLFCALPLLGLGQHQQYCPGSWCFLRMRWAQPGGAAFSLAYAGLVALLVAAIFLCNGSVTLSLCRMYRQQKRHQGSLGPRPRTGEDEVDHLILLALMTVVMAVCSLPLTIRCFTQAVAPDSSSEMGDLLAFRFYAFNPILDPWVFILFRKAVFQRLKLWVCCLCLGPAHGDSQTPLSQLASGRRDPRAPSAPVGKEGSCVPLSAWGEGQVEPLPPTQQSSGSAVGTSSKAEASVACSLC
smiles,measurement,setting,value
"Cn1nc(-c2ccnn2C)cc1CNC(=O)c1cc(-c2ccco2)ccc1Cl [Compound 19d, 2-Chloro-N-((1,2′-dimethyl-1H,2’H-[3,3′-bipyrazol]-5-yl)methyl)-5-(furan-2-yl)benzamide]",inhibition at 10 µM,EP2,41%
same,inhibition at 10 µM,Y1,-7%
same,inhibition at 10 µM,5-HT2C,3%
same,inhibition at 10 µM,M1,14%
same,inhibition at 10 µM,MC4,14%
same,inhibition at 10 µM,H2,-31%
same,inhibition at 10 µM,kappa (KOP),11%
same,inhibition at 10 µM,V1a,9%
same,inhibition at 10 µM,5-HT1B,11%
same,inhibition at 10 µM,VPAC1 (VIP1),-4%
same,inhibition at 10 µM,dopamine transporter,37%
same,inhibition at 10 µM,5-HT7,-4%
same,inhibition at 10 µM,delta (DOP),8%
same,inhibition at 10 µM,NOP (ORL1),-1%
same,inhibition at 10 µM,Y2,-18%
same,inhibition at 10 µM,[1],11%
same,inhibition at 10 µM,ETA,-6%
same,inhibition at 10 µM,M5,3%
same,inhibition at 10 µM,GR,0%
same,inhibition at 10 µM,D3,-6%
same,inhibition at 10 µM,mu (MOP),14%
same,inhibition at 10 µM,H1,6%
same,% Inhibition at 10 µM,Na+ channel (site 2),14%
same,inhibition at 10 µM,5-HT transporter,47%
same,inhibition at 10 µM,IP (PGI2),-7%
same,inhibition at 10 µM,M2,18%
same,inhibition at 10 µM,5-HT6,-7%
same,% Inhibition at 10 µM,Cl- channel (GABA-gated),9%
same,"reversal of AHL, in words",C57Bl/6 mice; 3 mg/kg,no reversal
same,Mean % reversal of AHL,C57Bl/6 mice; 3 mg/kg i.p.,-7.7 ± 32.6%
same,"reversal of AHL, in words",C57Bl/6 mice; 10 mg/kg,Full reversal
same,Mean % reversal of AHL,C57Bl/6 mice; 10 mg/kg i.p.,84.2 ± 10.2%
same,"reversal of AHL, in words",C57Bl/6 mice; 30 mg/kg,Full reversal
same,Mean % reversal of AHL,C57Bl/6 mice; 30 mg/kg i.p.,90.0 ± 12.7%
same,IC50,hERG,> 10 µM
